Data reported in patent publication US10537558B2 (Bantam Pharmaceutical, LLC, priority 2015, dated 2020).

system: BJAB cells; test: BJAB cell proliferation (Cell Titer Glo); format: cell-based; settings: Homo sapiens, read-out: EC50
Description: Cells were seeded in white Corning Costar 96-well assay plates at 2500 cells/well in 50 μL of medium. Serial dilutions of test compounds were made in cell culture medium/FBS+0.2% DMSO, and transferred to assay plates in a volume of 50 μL (DMSO at 0.1% final). Plates were maintained at 37° C. for approximately 72 hours. The effect of compounds on cell proliferation was evaluated using the Cell Titer Glo reagent (Promega), according to the manufacturer's instructions. Briefly, 100 μL of reagent was added per well, and after a 10 minute incubation luminescence values were determined on a plate reader (Tecan F200PRO). The percent of luminescence signal relative to untreated controls was calculated for each compound concentration, and EC50 values were determined from dose response data by non-linear regression analysis using Prism (GraphPad). The mTor inhibitor Torin1 (Liu, et al. (2010) J. Med. Chem. 53, 7146.) was used as a control. The data are summarized in the compound table provided above.

Structure (SMILES)	EC50 [µM]
Cc1nn(-c2nc(-c3ccc4nccn4c3)c(SC(C)C)s2)c(C(=O)O)c1-c1cc(Cl)cc(Cl)c1 [Compound 31, 4-(3,5-dichlorophenyl)-1-(4-(imidazo[1,2-a]pyridin-6-yl)-5-(isopropylthio)thiazol-2-yl)-3-methyl-1H-pyrazole-5-carboxylic acid]	> 25
CCC(C)Sc1sc(-n2nc(C)c(-c3cc(Cl)cc(Cl)c3)c2C(=O)OC)nc1-c1ccc(Cl)c(Cl)c1 (centres unmarked) [Compound 32a]	> 25
CCC(C)Sc1sc(-n2nc(C)c(-c3cc(Cl)cc(Cl)c3)c2C(=O)O)nc1-c1ccc(Cl)c(Cl)c1 (centres unmarked) [Compound 32b]	1 to 5
CCC(C)Sc1sc(-n2nc(C)c(-c3cc(C)nc(C)c3)c2C(=O)OC)nc1-c1ccc(Cl)c(Cl)c1 (centres unmarked) [Compound 33a]	> 25
CCC(C)Sc1sc(-n2nc(C)c(-c3cc(C)nc(C)c3)c2C(=O)O)nc1-c1ccc(Cl)c(Cl)c1 (centres unmarked) [Compound 33b]	< 1
COc1ccccc1-c1nc(-n2nc(C)c(-c3cc(C)nc(C)c3)c2C(=O)O)sc1SC(C)C [Compound 34, 4-(2,6-dimethylpyridin-4-yl)-1-(5-(isopropylthio)-4-(2-methoxyphenyl)thiazol-2-yl)-3-methyl-1H-pyrazole-5-carboxylic acid]	5 to 10
COc1cccc(-c2nc(-n3nc(C)c(-c4cc(C)nc(C)c4)c3C(=O)O)sc2SC(C)C)c1 [Compound 35, 4-(2,6-dimethylpyridin-4-yl)-1-(5-(isopropylthio)-4-(3-methoxyphenyl)thiazol-2-yl)-3-methyl-1H-pyrazole-5-carboxylic Acid]	1 to 5
COc1ccc(-c2nc(-n3nc(C)c(-c4cc(C)nc(C)c4)c3C(=O)O)sc2SC(C)C)cc1 [Compound 36, 4-(2,6-dimethylpyridin-4-yl)-1-(5-(isopropylthio)-4-(4-methoxyphenyl)thiazol-2-yl)-3-methyl-1H-pyrazole-5-carboxylic acid]	10 to 25
Cc1cc(-c2c(C)nn(-c3nc(-c4ccccc4)c(SC(C)C)s3)c2C(=O)O)cc(C)n1 [Compound 37, 4-(2,6-dimethylpyridin-4-yl)-1-(5-(isopropylthio)-4-phenylthiazol-2-yl)-3-methyl-1H-pyrazole-5-carboxylic Acid]	5 to 10
Cc1nn(-c2nc(-c3ccc(Cl)c(Cl)c3)c(SC(C)C)s2)c(C(=O)O)c1-c1c(CO)noc1C [Compound 38, 1-(4-(3,4-dichlorophenyl)-5-(isopropylthio)thiazol-2-yl)-4-(3-(hydroxymethyl)-5-methylisoxazol-4-yl)-3-methyl-1H-pyrazole-5-carboxylic acid]	> 50
COCc1noc(C)c1-c1c(C)nn(-c2nc(-c3ccc(Cl)c(Cl)c3)c(SC(C)C)s2)c1C(=O)O [Compound 39, 1-(4-(3,4-dichlorophenyl)-5-(isopropylthio)thiazol-2-yl)-4-(3-(methoxymethyl)-5-methylisoxazol-4-yl)-3-methyl-1H-pyrazole-5-carboxylic acid]	10 to 25
Cc1ccc(-c2nc(-n3nc(C)c(-c4cc(C)nc(C)c4)c3C(=O)O)sc2SC(C)C)cc1 [Compound 40, 4-(2,6-dimethylpyridin-4-yl)-1-(5-(isopropylthio)-4-p-tolylthiazol-2-yl)-3-methyl-1H-pyrazole-5-carboxylic acid]	1 to 5
Cc1cccc(-c2nc(-n3nc(C)c(-c4cc(C)nc(C)c4)c3C(=O)O)sc2SC(C)C)c1 [Compound 41, 4-(2,6-dimethylpyridin-4-yl)-1-(5-(isopropylthio)-4-m-tolylthiazol-2-yl)-3-methyl-1H-pyrazole-5-carboxylic Acid]	5 to 10
Cc1cc(-c2c(C)nn(-c3nc(-c4ccccc4C)c(SC(C)C)s3)c2C(=O)O)cc(C)n1 [Compound 42, 4-(2,6-dimethylpyridin-4-yl)-1-(5-(isopropylthio)-4-o-tolylthiazol-2-yl)-3-methyl-1H-pyrazole-5-carboxylic acid]	1 to 5
